# Experiments:
# Format in all cases: cell-based
# [1] = biological target: T1, ASIC2a (Rattus norvegicus, UniProt Q62962); experiment: whole-cell patch clamp, […] inhibition of peak current at […], pH […]; conditions: pH 5
# T1 construct: gene Asic2; rASIC2a homomer expressed in CHO cells
# T1 sequence (Q62962 1-512): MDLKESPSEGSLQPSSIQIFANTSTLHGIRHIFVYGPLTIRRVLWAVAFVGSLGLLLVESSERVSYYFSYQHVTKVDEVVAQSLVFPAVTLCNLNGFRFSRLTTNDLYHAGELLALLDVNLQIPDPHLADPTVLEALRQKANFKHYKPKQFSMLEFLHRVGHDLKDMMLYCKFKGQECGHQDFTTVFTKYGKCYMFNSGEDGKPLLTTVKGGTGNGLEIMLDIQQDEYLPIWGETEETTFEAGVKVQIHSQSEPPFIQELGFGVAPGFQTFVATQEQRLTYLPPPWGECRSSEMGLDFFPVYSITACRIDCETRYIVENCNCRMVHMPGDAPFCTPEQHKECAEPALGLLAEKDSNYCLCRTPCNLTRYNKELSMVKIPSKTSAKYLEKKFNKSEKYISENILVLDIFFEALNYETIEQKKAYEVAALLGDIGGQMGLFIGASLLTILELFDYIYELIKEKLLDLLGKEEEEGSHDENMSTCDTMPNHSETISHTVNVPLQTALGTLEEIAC
# [2] = biological target: T2, ASIC3 (Rattus norvegicus, UniProt O35240); experiment: whole-cell patch clamp, […] inhibition of peak current at […]
# T2 construct: rASIC3 expressed in CHO cells
# T2 sequence (O35240 1-533): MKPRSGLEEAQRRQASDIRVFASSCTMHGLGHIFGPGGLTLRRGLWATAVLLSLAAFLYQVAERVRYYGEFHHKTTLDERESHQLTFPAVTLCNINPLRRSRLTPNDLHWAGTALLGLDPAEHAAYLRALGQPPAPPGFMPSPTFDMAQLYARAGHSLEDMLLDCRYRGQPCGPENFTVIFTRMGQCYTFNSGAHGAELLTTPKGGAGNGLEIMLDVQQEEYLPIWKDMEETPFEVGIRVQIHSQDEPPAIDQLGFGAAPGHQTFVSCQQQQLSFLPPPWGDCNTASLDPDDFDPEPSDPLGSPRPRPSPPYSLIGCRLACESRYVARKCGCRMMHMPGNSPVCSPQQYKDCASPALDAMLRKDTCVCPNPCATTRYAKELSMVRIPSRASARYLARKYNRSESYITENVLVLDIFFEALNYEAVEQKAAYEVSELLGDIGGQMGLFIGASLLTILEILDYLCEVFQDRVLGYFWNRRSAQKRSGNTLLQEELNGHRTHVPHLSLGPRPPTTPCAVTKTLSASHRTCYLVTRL
# [3] = biological target: T3, ASIC1a (Rattus norvegicus, UniProt P55926); experiment: whole-cell patch clamp, slowed desensitization ([…] at […], […] at […]), amplitude unchanged
# T3 construct: gene Asic1; rASIC1a homomer expressed in CHO cells
# T3 sequence (P55926 1-526): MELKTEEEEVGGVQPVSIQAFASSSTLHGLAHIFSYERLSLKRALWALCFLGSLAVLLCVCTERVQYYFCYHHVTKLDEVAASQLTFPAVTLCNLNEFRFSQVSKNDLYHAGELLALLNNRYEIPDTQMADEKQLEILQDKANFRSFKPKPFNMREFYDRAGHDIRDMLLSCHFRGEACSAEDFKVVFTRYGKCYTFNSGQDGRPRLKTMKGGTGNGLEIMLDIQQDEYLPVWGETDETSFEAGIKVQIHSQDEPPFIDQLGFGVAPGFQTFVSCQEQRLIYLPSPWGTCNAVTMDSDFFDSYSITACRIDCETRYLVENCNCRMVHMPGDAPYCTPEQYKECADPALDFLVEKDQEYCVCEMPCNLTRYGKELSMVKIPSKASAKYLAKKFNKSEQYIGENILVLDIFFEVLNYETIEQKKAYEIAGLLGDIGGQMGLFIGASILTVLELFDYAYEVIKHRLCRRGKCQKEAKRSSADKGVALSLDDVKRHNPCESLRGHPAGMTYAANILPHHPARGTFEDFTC
# [4] = biological target: T1, ASIC2a; experiment: whole-cell patch clamp, potentiation of acid-evoked peak current at pH […]
Compound,inhibition at 70 µM [1] [%],inhibition at 70 µM [2] [%],fold slowing of desensitization [3],EC50 [4] [µM]
N=C(N)c1ccc(/N=N/Nc2ccc(C(=N)N)cc2)cc1 [diminazene],75 ± 12,74 ± 8,–,–
Nc1n(CC(=O)c2ccc(F)cc2)c2ccccc2[n+]1CCN1CCOCC1 [Ru-1355],–,–,1.28 ± 0.15,7.52 ± 0.33
